# Data: publication PMC8032764 (Scientific Reports, 2021)
# How the values were obtained:
# [1] = tested on: T1, Neuropeptide Y2; assay: Cerep binding; design: species or system human; settings: 10 μM; [125I]peptide YY; hum., KAN-TS cells
# T1 construct: purchased Eurofins Cerep
# [2] = tested on: Ca2+ channel, L-type (phenylalkylamine site); assay: Cerep binding; settings: 10 μM; [3H](-)D 888; rat cerebral cortex
# [3] = tested on: NMDA (PCP); assay: Cerep binding; settings: 10 μM; [3H]TCP; rat cerebral cortex
# [4] = Plasma levels, parallel dose groups of water maze; type: in vivo, rat; settings: 10 mg/kg p.o., 30 min
# Procedure: Plasma samples were collected and frozen at − 80 °C for later analysis.
# The calibration range was from 1.0 to 5000 ng/mL. After protein precipitation with ethanol, the sample solution was injected onto a Gemini C18 trapping column (2 × 10 mm; Phenomenex, Torrance, CA, USA) and polar endogenous compounds and salts were rinsed off. Analytical separation was performed on an Atlantis T3 column (2.1 × 50 mm) (Waters, Milford, MA, USA), using methanol/water containing 0.1% formic acid as mobile phase. A drug analogue was used as an internal standard.
# [5] = tested on: dogs; assay: GLP toxicology and safety pharmacology, daily oral administration; type: in vivo, dog
# [6] = molecular target: human GABAA α5β3γ2 (Homo sapiens, UniProt P18507+P31644); assay: Two-electrode voltage clamp in Xenopus oocytes, current induced by EC10 of GABA; type: cell-based; design: expressed in transfected cells; host or cells: Xenopus laevis oocytes, cRNA injection
# human GABAA α5β3γ2, sequence (P31644 32-462): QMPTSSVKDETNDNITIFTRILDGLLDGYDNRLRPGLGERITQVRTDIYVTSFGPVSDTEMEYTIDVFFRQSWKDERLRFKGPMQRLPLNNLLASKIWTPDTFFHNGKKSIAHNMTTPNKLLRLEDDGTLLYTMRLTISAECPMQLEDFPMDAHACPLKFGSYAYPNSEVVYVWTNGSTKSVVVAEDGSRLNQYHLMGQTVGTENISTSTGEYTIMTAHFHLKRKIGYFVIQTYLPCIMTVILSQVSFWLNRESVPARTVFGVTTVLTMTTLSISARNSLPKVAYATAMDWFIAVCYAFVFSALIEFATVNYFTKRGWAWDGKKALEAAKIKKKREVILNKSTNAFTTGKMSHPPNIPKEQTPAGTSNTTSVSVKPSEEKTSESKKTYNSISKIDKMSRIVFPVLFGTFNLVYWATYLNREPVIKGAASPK
# human GABAA α5β3γ2, sequence (P28472 26-473 partner): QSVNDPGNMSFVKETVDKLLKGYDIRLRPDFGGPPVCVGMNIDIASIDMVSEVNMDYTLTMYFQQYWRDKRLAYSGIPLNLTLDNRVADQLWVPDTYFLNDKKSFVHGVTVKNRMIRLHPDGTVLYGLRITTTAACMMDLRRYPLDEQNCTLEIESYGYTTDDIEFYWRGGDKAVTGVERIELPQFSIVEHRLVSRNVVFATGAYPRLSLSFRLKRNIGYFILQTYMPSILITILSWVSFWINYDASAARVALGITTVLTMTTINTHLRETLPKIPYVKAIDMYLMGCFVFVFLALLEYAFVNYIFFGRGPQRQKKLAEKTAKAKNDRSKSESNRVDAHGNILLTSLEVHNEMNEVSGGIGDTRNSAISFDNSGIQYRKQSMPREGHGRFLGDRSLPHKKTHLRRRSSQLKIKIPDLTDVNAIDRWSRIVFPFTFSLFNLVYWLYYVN
# human GABAA α5β3γ2, sequence (P18507 40-475): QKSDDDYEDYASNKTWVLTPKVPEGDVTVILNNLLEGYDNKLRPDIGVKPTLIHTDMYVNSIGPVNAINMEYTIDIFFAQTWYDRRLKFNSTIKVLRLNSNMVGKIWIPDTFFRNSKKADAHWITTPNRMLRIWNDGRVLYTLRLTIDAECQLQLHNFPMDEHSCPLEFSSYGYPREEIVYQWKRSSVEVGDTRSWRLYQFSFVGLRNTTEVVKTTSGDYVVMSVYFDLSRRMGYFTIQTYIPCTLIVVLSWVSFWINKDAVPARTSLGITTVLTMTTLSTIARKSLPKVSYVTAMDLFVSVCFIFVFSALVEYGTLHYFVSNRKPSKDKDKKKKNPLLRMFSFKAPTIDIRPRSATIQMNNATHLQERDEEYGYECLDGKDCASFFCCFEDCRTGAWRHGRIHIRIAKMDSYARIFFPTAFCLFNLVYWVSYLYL
# Procedure: Freshly prepared oocytes of maturation stage VI were bought from Ecocyte Bioscience (Castrop-Rauxel, Germany) and, after overnight delivery, plated into 96-well plates (Greiner no. 651101) for microinjection on a ROBOOCYTE R16 system (Multichannel Systems MCS GmbH, Reutlingen, Germany). Each oocyte was injected with roughly 50 nL of RNA solution. The solution for expressing receptors composed of the human α1, β2 and γ2 subunits contained 3 pg/nL of α1 and β2 RNA and 15 pg/nL of γ2 RNA. The solution for expressing human α2β3γ2 receptors contained 2.5 pg/nL of α2 and β3 RNA, 5 pg/nL of γ2 RNA and 10 pg/nL of GABARAP RNA. The solution for expressing human α3β3γ2 receptors contained 1.3 pg/nL of α3 and β3 RNA and 6.5 pg/nL of γ2 RNA. The solution for expressing human α5β3γ2 receptors contained 1.3 pg/nL of α5 and β3 RNA and 13 pg/nL of γ2 RNA. […] After the microinjection the oocytes were kept at 20 °C temperature until the electrophysiological experiment. Experiments were done 3 to 5 days later on the ROBOOCYTE instrument which employs the two-microelectrode voltage-clamp technique for membrane voltage control and current measurement. […] During current recording and compound testing the cell membrane was constantly clamped to − 80 mV. Current signals were recorded and stored on a PC-type computer using the ROBOOCYTE software.
# During the microinjection and up to the electrophysiological experiment the oocytes were kept in a solution containing 88 mM NaCl, 1 mM KCl, 2.5 mM NaHCO3, 10 mM HEPES (AppliChem GmbH, Darmstadt, Germany), 0.82 MgSO4, 0.33 mM Ca(NO3)2, 0.33 mM CaCl2, 100 U/mL penicillin (GIBCO, ThermoFisher Scientific) and 100 µg/mL streptomycine (GIBCO, ThermoFisher Scientific). The pH was adjusted to 7.5. During the experiment the voltage-clamped oocyte was constantly superfused by a solution containing 90 mM NaCl, 1 mM KCl, 5 mM HEPES (AppliChem), 1 mM MgCl2 and 1 mM CaCl2 (pH 7.4). GABA and test compounds were added to this solution. GABA concentrations were chosen according to previously determined concentration–response relations for the different human GABAA receptor subunit combinations. Concentrations evoking approximately 10% of a maximal response were selected, i.e., 8 µM for α1β2γ2, 6 µM for α2β3γ2, 10 µM for α3β3γ2 and 5 µM for α5β3γ2. Solutions containing GABA or test compounds were freshly prepared at least every second day. […] Compounds were further diluted in DMSO and finally in extracellular saline to reach a DMSO concentration of 0.1%. The same amount of DMSO was added to the control solutions without test compounds.
# During the experiment the solutions were fed into the well containing the voltage-clamped oocyte via Teflon tubings connected by electromagnetic valves which allowed rapid switching between different solutions (controlled by the ROBOCYTE software). Approximately 1–2 min after impaling an oocyte and switching to voltage-clamp mode GABA was applied for 90 s to record a control response. Thereafter the oocyte was washed with saline for 160 s followed by another 90 s GABA application. Then 30 s after the onset of the second GABA application the system switched to a solution containing GABA plus the test compound. Each oocyte was used for testing one concentration of a single test compound (for α5β3γ2: 1 nM: n = 8, 10 nM: n = 8, 100 nM: n = 7, 1000 nM: n = 7).
# In this case each GABA application lasted 110 s and the rest period between the two GABA applications was 190 s long.
# On each 96-well plate 3–6 oocytes were used for testing a known NAM at the BZD binding site, β-CCM (FG7106), as a positive control. […] Maximally effective concentrations of β-CCM were used for each subunit combination, i.e., 100 nM β-CCM for α1β2γ2, 300 nM for α2β3γ2 or α3β3γ2 and 1 µM for α5β3γ2.
# [7] = concentration–response curve, n = 7
compound,measurement,setting,value
Cc1onc(-c2ccc(F)cc2)c1COc1ccc(C(=O)N2CCS(=O)(=O)CC2)cn1 [basmisanil],% Inhibition,[1],7%
same,% Inhibition,[2],-3%
same,% Inhibition,[3],14%
same,maximal plasma level,[4],903 ± 13 ng/mL
same,exposures with lack of clinical signs and convulsion symptoms,[5]; GLP toxicology studies in dogs,up to 4590 ng/mL
same,convulsions and EEG alterations,"[5]; daily oral, supra-therapeutic plasma exposures, up to 39 weeks",no convulsions and no EEG alterations
same,decrease of GABA-induced current under co-treatment with flumazenil,[6]; 100 nM basmisanil + flumazenil 30 or 1000 nM,blocked by co-treatment with flumazenil
same,reduction of the GABA-evoked current,"[6]; 1 µM, highest concentration tested, 5 µM GABA",42 ± 1%
same,Hill slope,[6]; [7],0.9
same,IC50,[6]; [7],8 nM
